Measured values: ChEMBL document CHEMBL5727895, “Nitrogen-containing heteroaryl compound and pharmaceutical use thereof” (2020)

Assay: Evaluation of GLUT9 Inhibitory Activity: Uricase/Hyper transiently-transfected human GLUT9 stably expressing cells or mock cells (blank) were seeded in a 96 well plate (Corning) at 1.6×10^5 cells/well, and cultured overnight at 37° C., 5% CO2. D-MEM/high glucose (Wako Pure Chemical Industries, Ltd.) containing 10% Fetal Bovine Serum (Lifetechnology) and 100 units/ml penicillin/100 μg/ml streptomycin (GIBCO) was used as a medium. High K− buffer (129.8 mM KCl, 1.2 mM KH2PO4, 1.2 mM MgSO4.7H2O, 1.3 mM CaCl2. 2H2O, 25 mM HEPES, pH 7.4 with 1 M Tris) and the medium were mixed in equal amount to prepare Assay Buffer. The medium in each well was removed, and the test compound solution (final 1% DMSO) diluted with Assay Buffer was added thereto at 50 μl/well, and the mixture was left stand at room temperature for 30 to 60 min. For the solvent control and blank, Assay Buffer containing DMSO alone was added at 50 μl/well, and the mixture was left stand at room temperature for 30 to 60 min. In addition, uric acid solution (containing [14C]uric acid as a tracer) diluted with Assay Buffer was added to each well at 15 μl/well (final 300 μM uric acid), and the uptake reaction was performed at room temperature for 6 min. After the completion of the reaction, the cells were washed three times with ice-cooled Wash Buffer (Hank's Balanced Salt Solution containing 0.01% Bovine Serum Albumin) at 150 μl/well, and 0.1N aqueous NaOH solution was added thereto at 25 μl/well to dissolve the cell. MicroScint-20 (Perkin-Elmer) was added thereto at 150 μl/well, the plate was shaked, and CPM of [14C] was measured by TopCount NXT (Perkin-Elmer).Data was obtained by deducting average of CPM in blank well from average of CPM in each treated well. The inhibitory rate of the test compound in each concentration was calculated from the following formula: [(A−B)/A]×100, A is data of solvent control, B is data of test compound treatment.

Compound | IC50 [nM]
CCCCc1cnc(-c2ccc(CC)c(C)c2)c(-c2ccc(C(=O)O)cc2)n1 | 150
CCCCc1cnc(-c2cc(F)c(OC)c(F)c2)c(-c2ccc(C(=O)O)cc2)c1 | 57.8
COCCCCc1cnc(-c2ccc(C(F)(F)F)cc2)c(-c2ccc(C(=O)O)cc2)n1 | 158
COc1ccc(-c2ncc(CC3CCCC3)cc2-c2ccc(C(=O)O)cc2)cc1 | 842
CCCCCc1cnc(-c2ccc(OC)cc2)c(-c2ccc(C(=O)O)cc2)c1 | 50.6
CCCCc1cnc(-c2ccc(OC)cc2)c(-c2ccc(C(=O)O)cc2)c1F | 83.7
CCCCc1cnc(-c2ccc(C)cc2)c(-c2ccc(C(=O)O)cc2)c1 | 340
CCCc1cnc(-c2ccc(OC)cc2)c(-c2ccc(C(=O)O)cc2)c1 | 89
CCCCc1cnc(-c2ccc(OC)cc2)c(-c2ccc(C(=O)O)cc2)n1 | 141
CCCc1cnc(-c2cc(F)c(OC)c(F)c2)c(-c2ccc(C(=O)O)cc2)c1 | 72
COc1ccc(-c2ncc(CC3CCC3)cc2-c2ccc(C(=O)O)cc2)cc1 | 192
CCCCc1cnc(-c2ccc(OC)c(F)c2)c(-c2ccc(C(=O)O)cc2)c1 | 89.2
COCCCc1cnc(-c2ccc(OC)cc2)c(-c2ccc(CCC(=O)O)cc2)n1 | 91.8
